# US20160195544A1, “METHOD OF DIAGNOSING SEPSIS OR SEPSIS RISK” (UNIVERSITY OF ROCHESTER, priority 2013, published 2016)
# Legend:
# [1] = system: neutrophils isolated from healthy donors; test: In vitro stimulation of neutrophils from healthy donors, VLA-3 expression by RT-PCR and flow cytometry; type: cell-based; conditions: human neutrophils, 1 and 3 hours of stimulation, PMA 20 ng/ml, LPS 100 μg/ml
# Source text: Blood was collected from healthy volunteers via antecubital vein puncture in heparin containing vacutainers. Granulocytes and erythrocytes were separated from whole blood by centrifugation through 1-step Polymorphs (Fresenius Kabi Norge AS) density gradient. Remaining erythrocytes were removed by hypotonic lysis, yielding a neutrophil purity of >98%. The Human Research Studies Review Board of the University of Rochester approved this study, and informed consent was obtained in accordance with the Declaration of Helsinki To measure integrin expression, neutrophils were stimulated with PMA (20 ng/ml), TNF-α (20 ng/ml), LPS (100 μg/ml) or fMLP (1 μM for 1 hour or 3 hours in L15 (Leibovitz) medium with glucose at 37° C. temperatures.
# Total RNA was prepared from human neutrophils or sorted mouse bone marrow granulocytes using RNeasy Mini Kit (QIAGEN, Valencia, Calif.). Similarly, RNA was reverse transcribed by using murine leukemia virus reverse transcriptase (Life Technologies, Bethesda, Md.), with oligo(dT) as the primer (Invitrogen, San Diego, Calif.). All cDNAs were divided into aliquots and stored at −20° C. until further use. Quantitation of integrins α3 and α2 on human neutrophils and IL-6, IL-β and TNFα mRNA were performed using TaqMan® Gene Expression Assays (Applied Biosystems). […] RQ values were analyzed using software.
# VLA-3 [2] = target: T1, VLA-3 (Mus musculus, UniProt P09055+Q62470); test: Transmission electron microscopy of fMLP-superfused cremaster microvasculature; type: in vivo; conditions: 88 μg IV
# T1 construct: endogenous in cells; host or cells: neutrophils and other tissues of live mice (C57BL/6; LysM-GFP bone marrow chimeras)
# Protocol: Leukocyte extravasation was first observed on the fMLP-stimulated cremaster venules of LysM-GFP mice by MP-IVM. LXY2 (88 μg) peptide was injected IV when extravasating cells were noticed. The cremaster was then immediately dissected from the body post-euthanization and fixed with 2.5% glutaraldehyde. The tissue was further processed for transmission electron microscopy at the Electron Microscope Research Core at the University of Rochester for transmission electron microscopy.
# VLA-3 [3] = target: T1, VLA-3; test: LPS-induced endotoxemia mouse model, VLA-3 blocking with peptide; type: in vivo; conditions: endotoxemia mice, 8 hours, 88 μg peptide, vs control peptide
# Protocol: (§1) Endotoxemia and CLP were performed according to Animal Resource Protocol approved by the Committee at University of Rochester. For endotoxemia assay, 8-12-wk-old C57BL/6 (Harlan) male mice were weighed and LPS (E. coli […], Sigma-Aldrich) was administered by intra peritoneal (IP) injection to achieve LD90 mortality rate. CLP survival surgery was performed under isofluorane inhalation anesthesia. Caecum was ligated and punctured through and through with a 21-gauge needle. All the mice were resuscitated with 1 ml lactated Ringers injected subcutaneously. For VLA-3 blocking experiments, LXY2 (88 μg) (CysD-AspD-Gly-Tyr(3-NO2)-Gly-4Hyp-Asn-CysD) where the amino acids may be D amino acids, or control (88 μg) (Peptide International) peptides were administered intravenously (IV) at 2 hours and by IP at 8 hours, 32 hours following CLP or endotoxemia. Survival was monitored for 120 hours.
# For flow cytometry measurement of the integrin expression on neutrophil, bone marrow (BM), peritoneal Lavage (PL), peripheral blood and lungs were isolated from naïve and septic mice at the indicated time points and subsequently single-cell suspensions were prepared. RBC lysis was performed using ACK lysing buffer (Invitrogen, San Diego, Calif.). The Fc receptors were blocked with unconjugated anti-CD16/32 (eBioscience, San Diego, Calif.) for 30 minutes. […] Data were analyzed using Flow Jo software.
# VLA-3 [4] = target: T1, VLA-3; test: Multiphoton intravital microscopy (MP-IVM) of fMLP-superfused cremaster vessels of LysM-GFP mice; type: in vivo; conditions: fMLP 1 μM superfusion, 88 μg IV
# Source text: For MP-IVM of Lysozyme M (LysM)-GFP mice (Faust et al., “Insertion of Enhanced Green Fluorescent Protein Into the Lysozyme Gene Creates Mice With Green Fluorescent Granulocytes and Macrophages,” Blood 96:719-726 (2000), the disclosure of which is incorporated herein by reference in its entirety) in which granulocytes and monocytes express GFP were used. In order to accurately track morphological changes and migration velocities of individual extravasating leukocytes, mixed bone marrow chimera mice were generated using 80% WT and 20% LysM-GFP bone marrow into irradiated WT recipient mice to reduce the density of fluorescent cells during imaging. 8 weeks after bone marrow transfer to the irradiated recipient mice, the mice were then used for in vivo imaging. Cremaster muscle was prepared for imaging as previously described (Sumagin et al., “Leukocyte-Endothelial Cell Interactions are Linked to Vascular Permeability Via ICAM-1-Mediated Signaling,” Am. J. Physiol. Heart Circ. Physiol. 295:H969-H977 (2008), the disclosure of which is incorporated herein by reference in its entirety). Briefly, mice were anesthetized with pentobarbital sodium (65 mg/kg IP) and maintained on isoflorane inhalation anesthesia. The body temperature was maintained by placing the animal on a warming pad set. […] Imaging data were analyzed with velocity software (PerkinElmer).
# VLA-3 [5] = target: T1, VLA-3; test: CLP (cecal ligation and puncture) sepsis mouse model, VLA-3 blocking with peptide; type: in vivo
# Protocol: as §1
# For flow cytometry measurement of the integrin expression on neutrophil, bone marrow (BM), peritoneal Lavage (PL), peripheral blood and lungs were isolated from naïve and septic mice at the indicated time points and subsequently single-cell suspensions were prepared. RBC lysis was performed using ACK lysing buffer (Invitrogen, San Diego, Calif.). The Fc receptors were blocked with unconjugated anti-CD16/32 (eBioscience, San Diego, Calif.) for 30 minutes. Samples were stained with Alexafluor 488 labeled anti-Gr1 (Invitrogen). Allophycocyanin (APC) labeled Ly6G (BD Biosciences), PerCp-Cy5.5 labeled anti-CD11b (eBioscience, San Diego, Calif.,), fluorescein isothiocyanate (FITC) anti-F4/80 (eBioscience, San Diego, Calif., USA), purified goat anti-mouse integrin α3/CD49c (R&D Systems), PE-anti-mouse integrin α2/CD49b, α5/CD49e, αv/CD51, APC-anti-mouse integrin α6/CD49f and PE conjugated donkey anti-goat IgG (Santa Cruz) antibodies were used. All samples were fixed with 3.7% formaldehyde and collected on FACS Calliber flow cytometer (BD Biosciences, San Diego, Calif.). Data were analyzed using Flow Jo software.
# Peritoneal lavage was collected after injection of 10 ml PBS into the peritoneum. […] Colony count for each group was expressed as CFU/ml.
# Serum from individual mice was collected at the indicated time points and the level of IL-6 was determined by standard sandwich ELISA protocol. […] The color reaction was developed using TMB (Thermo Scientific, Rockford, Ill.) and measured with an ELISA reader (Kinetic microplate reader; Molecular Devices) at 450 nm.
# All values are expressed as the mean±SEM. Data from human samples were analyzed by one-way ANOVA. Data from murine experiments were analyzed by paired non-parametric t-test (Wilcoxon test). Survival curves were analyzed by the Kaplan-Meyer log-rank test. […]
# T1 sequence (Q62470 33-1053): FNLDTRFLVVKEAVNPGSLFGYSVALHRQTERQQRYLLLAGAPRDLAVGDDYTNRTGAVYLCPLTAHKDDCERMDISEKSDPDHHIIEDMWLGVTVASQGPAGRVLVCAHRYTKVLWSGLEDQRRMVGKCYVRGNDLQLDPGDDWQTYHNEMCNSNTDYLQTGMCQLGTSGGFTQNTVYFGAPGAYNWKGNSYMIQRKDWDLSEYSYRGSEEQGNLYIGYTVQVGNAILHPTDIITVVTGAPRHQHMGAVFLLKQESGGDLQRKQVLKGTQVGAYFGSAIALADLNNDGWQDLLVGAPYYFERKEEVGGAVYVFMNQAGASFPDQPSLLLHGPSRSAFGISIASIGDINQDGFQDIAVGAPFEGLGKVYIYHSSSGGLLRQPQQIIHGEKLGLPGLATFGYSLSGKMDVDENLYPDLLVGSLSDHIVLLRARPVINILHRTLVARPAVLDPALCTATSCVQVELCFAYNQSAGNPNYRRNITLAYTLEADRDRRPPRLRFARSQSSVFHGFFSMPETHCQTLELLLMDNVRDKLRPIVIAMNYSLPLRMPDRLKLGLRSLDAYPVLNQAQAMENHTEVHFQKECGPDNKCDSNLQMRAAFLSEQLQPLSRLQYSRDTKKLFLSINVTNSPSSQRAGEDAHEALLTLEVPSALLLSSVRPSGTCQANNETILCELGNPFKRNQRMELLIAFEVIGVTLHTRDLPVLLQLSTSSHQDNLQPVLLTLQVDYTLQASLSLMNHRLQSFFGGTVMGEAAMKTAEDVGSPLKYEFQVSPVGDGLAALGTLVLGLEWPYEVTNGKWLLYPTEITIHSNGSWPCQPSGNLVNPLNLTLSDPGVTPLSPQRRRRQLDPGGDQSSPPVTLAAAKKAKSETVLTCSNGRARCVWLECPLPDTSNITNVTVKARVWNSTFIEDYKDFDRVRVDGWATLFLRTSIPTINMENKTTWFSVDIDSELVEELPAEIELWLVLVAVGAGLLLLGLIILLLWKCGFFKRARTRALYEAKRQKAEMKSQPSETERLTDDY
# T1 sequence (P09055 21-798): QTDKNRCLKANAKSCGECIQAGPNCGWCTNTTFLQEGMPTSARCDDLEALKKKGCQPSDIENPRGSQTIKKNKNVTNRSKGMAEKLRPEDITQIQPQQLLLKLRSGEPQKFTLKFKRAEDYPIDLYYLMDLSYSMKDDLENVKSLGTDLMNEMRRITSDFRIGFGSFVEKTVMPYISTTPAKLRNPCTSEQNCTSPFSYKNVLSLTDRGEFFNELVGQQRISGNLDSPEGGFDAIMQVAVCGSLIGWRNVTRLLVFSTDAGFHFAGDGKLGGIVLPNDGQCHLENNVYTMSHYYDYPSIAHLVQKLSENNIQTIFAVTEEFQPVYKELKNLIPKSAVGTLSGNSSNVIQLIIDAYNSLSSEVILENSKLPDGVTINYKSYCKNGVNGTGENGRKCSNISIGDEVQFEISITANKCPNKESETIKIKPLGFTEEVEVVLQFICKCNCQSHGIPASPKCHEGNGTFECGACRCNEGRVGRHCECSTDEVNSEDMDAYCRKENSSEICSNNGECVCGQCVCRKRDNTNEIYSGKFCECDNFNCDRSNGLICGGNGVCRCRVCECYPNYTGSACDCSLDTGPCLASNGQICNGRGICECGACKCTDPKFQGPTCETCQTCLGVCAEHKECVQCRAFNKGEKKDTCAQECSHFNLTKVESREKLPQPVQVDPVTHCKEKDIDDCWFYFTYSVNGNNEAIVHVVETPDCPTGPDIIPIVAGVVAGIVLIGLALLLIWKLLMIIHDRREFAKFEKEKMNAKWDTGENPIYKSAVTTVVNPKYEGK
compound,measurement,setting,value
CCCCCCCCCCCCCC(=O)O[C@@H]1[C@@H](C)[C@@]2(O)[C@@H](C=C(CO)C[C@]3(O)C(=O)C(C)=C[C@@H]23)[C@@H]2C(C)(C)[C@]12OC(C)=O [PMA],mRNA level of VLA-3,[1]; RT-PCR,significant increases
same,protein (cell-surface) level of VLA-3,[1]; flow cytometry,significant increases
CysD-AspD-Gly-Tyr(3-NO2)-Gly-4Hyp-Asn-CysD [LXY2],location of neutrophils in the vessel wall (ultrastructural analysis),VLA-3 [2],majority of neutrophils accumulated within the space between the endothelium and the basement membrane
same,number of tissue-infiltrating neutrophils (PL),VLA-3 [3],significantly reduced
same,neutrophil extravasation in response to fMLP,VLA-3 [4],dramatically reduced
same,survival / sepsis lethality,"VLA-3 [5]; CLP and endotoxemia mice, 88 μg IV at 2 hours and IP at 8 and 32 hours, survival monitored 120 hours, Kaplan-Meyer log-rank",protected mice from sepsis lethality
same,number of tissue-infiltrating neutrophils (PL and lungs),"VLA-3 [5]; mice with CLP-induced sepsis, 8 hours after CLP, 88 μg/dose IV, vs control peptide",significantly reduced
same,local bacterial clearance (bacterial load in PL),"VLA-3 [5]; septic mice, PL streaked on TSA blood agar, colonies counted after 24 hours",without altering
same,levels of the IL-6 cytokine in the serum,"VLA-3 [5]; septic mice, sandwich ELISA",reduced
